From ChEMBL document CHEMBL3507680, “University of Dundee, Gates Library screen for HepG2 cell viability”

Test: Human HepG2 cell viability assay in 384 well format
Type: toxicity, cell-based
Set-up: dose 125 nL, time 70.5 hour; cytotoxicity at 70.5 h: concentration not given beside the values
Conditions: HepG2 cells, read-out: Inhibition

SMILES | cytotoxicity at 70.5 h [%]
COc1ccccc1CNC(=O)N1CCCC(c2nncn2C)C1 (stereo not given) | -2.85
COc1ccc(CN(C)CC2(O)CCN(C(=O)c3cccn3C)C2)cc1 (stereo not given) | 36.1
COc1ccccc1CN(Cc1cccnc1)Cc1c[nH]c(C)n1 | 8.36
CCc1nc(C)c(C(=O)N(C)Cc2cnn(-c3cccc(OC)c3)c2)s1 | -3.66
Nc1nccc(C2CCN(c3cnccn3)C2)n1 (stereo not given) | 21.1
COc1ccc2c(c1)OCC(Cc1ccc(CN)cn1)C2 (stereo not given) | -7.48
CCn1ncc2c1CCCC2NCc1cc(Cl)c(OC)c(OC)c1 (stereo not given) | 27.8
CCN(Cc1cc(Cl)ccc1OC)Cc1nccn1C | 12.7
Cc1cc(C(=O)N(C)Cc2cnn(C)c2)c(NC(=O)C(C)(C)C)s1 | -12.1
Cc1cccc(COc2ccc(NC(=O)C(C)NC(N)=O)c(C)c2)c1 (stereo not given) | -9.19
CCc1n[nH]c(C2CN(C(=O)CCCn3cccn3)CCO2)n1 (stereo not given) | 2.59
CCC(CO)N(C/C(C)=C/c1ccco1)Cc1ccsc1 (stereo not given) | 3.15
O=S(=O)(c1cccc(Cl)c1)N1CCCC(Cn2cncn2)C1 (stereo not given) | -4.36
CNC(=O)c1cccc(NC(=O)NCc2ccccc2)c1C | -10.1
CCc1nc(CN(C)Cc2nnc(-c3cccs3)o2)cs1 | -3.41
CN(C)CC(=O)N1CCCC2(CCC(=O)N(CCc3c[nH]cn3)C2)C1 (stereo not given) | -14.8
Cc1nc(C)n(CCCNc2ncnc(C)c2C)n1 | 18
O=C1CC[C@]2(CC[C@@H](NC3CCOC3)CC2)N1Cc1ccncc1 (stereo not given in full) | -2.28
CSCC(=O)N1CCCN(Cc2cscn2)CC1 | -2.64
CS(=O)(=O)Cc1nc(CN2CCCc3sccc3C2)cs1 | -5.84
CCOCC1CN(c2ncccn2)Cc2cnn(CC3CCOCC3)c21 (stereo not given) | 9.85
COc1cccc(-n2nnc(C(=O)N3CCCC3)c2C)c1 | -13.2
O=c1[nH]c2cc3c(cc2cc1CN1CCCC1c1ccccn1)CCC3 (stereo not given) | 9.53

SMILES | cytotoxicity at 70.5 h [%]
Cc1nn(C)c2nc(N(Cc3cnn(C)c3)C3CCCCC3)sc12 | 7.12
CC(=O)N1CCC2(CCCN2Cc2cnn(C)c2)CC1 | -10
COc1ccc(C(=O)N2CC(=O)N(Cc3cccs3)CC(O)C2)cc1 (stereo not given) | -2.23
CC(C)CC(=O)N1CC[C@@H]2CN(CC(=O)N(C)C)S(=O)(=O)[C@@H]2CC1 | 1.05
CN(C)C(=O)c1ccc(OC2CCOCC2)cc1 | -15.1
CCN1C(=O)CCC12CCCN(Cc1nccs1)C2 (stereo not given) | -13.8
Cn1cc(C(=O)N2CC[C@@H]3[C@@H]2CCN3Cc2ccccc2)cn1 | -15
COc1ccc(N2CCC(NC(=O)c3ccc(C#N)cc3)CC2)cc1 | -4.31
Cn1c(Cn2ccnc2)nnc1C1CCN(C(=O)c2ccccn2)CC1 | 5.03
CN(C)Cc1cnc(C2CCN(C(=O)c3cccc(F)c3)C2)[nH]1 (stereo not given) | 20.2
CN1CCC(NC(=O)CCCc2cc(Cl)sc2Cl)C1=O (stereo not given) | -9.29
O=C(CCn1ccc2cc(Br)ccc21)NCc1ccc(C(=O)O)cc1 | -5.77
COc1cc(N2CCC3(CCCN(C(=O)c4cccnc4)C3)C2)ncn1 (stereo not given) | 16.7
Cc1cc(C2CCCN(Cc3nnc(Cc4ccccc4)o3)C2)n[nH]1 (stereo not given) | -9.79
CN(C)c1cncc(C2CCN(CC3(O)CCCCC3)CC2)n1 | 25.1
CC(C)N1CCC(NC(=O)NCCC(=O)NCc2ccccc2)C1 (stereo not given) | 10.4
O=C(C(NCc1cccc(F)c1F)c1ccccc1)N1CCOCC1 (stereo not given) | -1.89
Cc1cc(NC2CC3(CCN(Cc4cscn4)C3)C2)ncn1 (stereo not given) | -6.43
Cc1cc(N(C)CCC(O)c2ccccc2)n2nccc2n1 (stereo not given) | -3.24
O=C(c1cnc(-c2ccco2)s1)N1CCCCC1Cn1cccn1 (stereo not given) | -9.96
COCc1nc(C(=O)N2CCCC(n3nc(C)cc3C)C2)cs1 (stereo not given) | -8.71
O=C(c1ccc(Cl)cc1F)N1CCC(Cn2cc(CO)nn2)CC1 | -5.57
CCNC(=O)N1CC(c2nc(Cc3ccccc3)no2)C1 | -5.59

SMILES | cytotoxicity at 70.5 h [%]
COCC(=O)N1CCCC1c1nc(C)c2c(n1)N(CC(C)C)C(=O)CC2 (stereo not given) | -6.03
O=S(=O)(Cc1cccc(F)c1)Nc1cc(Cl)ccn1 | 2.91
Cc1cc(C(=O)N2CC[C@@H](N(C)C)[C@@H]2Cc2ccccc2)no1 | -0.0942
Cc1nc(COC[C@@H]2CCC[C@@]23CNCCO3)cs1 | 15.5
N#Cc1nccnc1N1CCC(Cc2ccccc2)C1 (stereo not given) | -3.44
Cn1ccc(C(=O)NCc2ccc(N3CCCCCC3)nc2)cc1=O | -12.5
Cc1n[nH]c(C)c1Sc1ccccc1NC(=O)N1CCOCC(O)C1 (stereo not given) | 2.32
CC(c1nc(C2CC2)no1)N1CCN(CCCN2CCCC2=O)CC1 (stereo not given) | 3.52
COCC(=O)N1CCN(Cc2coc(-c3cccc(F)c3)n2)CC1 | -6.62
COc1ccc(OC)c(CN(C(=O)c2ccc(C)[nH]c2=O)C2CC2)c1 | 3.46
COCc1ccc(CNC(=O)C2=NN(c3ccccc3)C(=O)CN2)cc1 | -12.2
CCOc1ccc(NCC(=O)NCC(=O)N2CCCC2)c(C(F)(F)F)c1 | -11.7
CC(=O)Nc1ncc(S(=O)(=O)N2CCOCC2)s1 | -1.73
Cn1cc(C[C@H]2[C@H](N3CCOCC3)CCN2C(=O)c2ccc[nH]2)cn1 | -20.8
Cc1ccc(C(=O)N2CCC3(CCCN(c4ccc(C)nn4)C3)C2)cn1 (stereo not given) | -10.8
Cc1ccc(C(=O)OC(C)Cn2cccn2)c(=O)[nH]1 (stereo not given) | -0.535
Cc1[nH]c2c(F)cccc2c1CC(=O)NCCCNc1cccnc1 | -11.8
COCCNC(=O)N1CCN(C(C)C(=O)NC2CCCC2)CC1 (stereo not given) | -5.61
Cc1nc(CNC(=O)N(CCCO)C2CCc3ccccc32)oc1C (stereo not given) | -1.03
CCN1CCCN(c2ncccc2C(=O)N2CCCCC2)CC1 | 9.71
O=C(COCc1ccccc1)Nc1ccccn1 | 0.318
Cc1cc(F)ccc1N1CCCC(NC2CCOCC2)C1=O (stereo not given) | 31.7
FC(F)(F)COCCN1CCc2cncnc2C1 | -2.38

SMILES | cytotoxicity at 70.5 h [%]
CC(C)C1SCC(=O)Nc2c1cnn2-c1ccc(F)cc1 (stereo not given) | -1.99
Cc1cncnc1C1CCN(C(=O)C2(C)CCCCN2C)CC1 (stereo not given) | -4.92
Cc1ccccc1CSc1ncc(Br)c(C(=O)O)n1 | -5.71
CSc1cc2c(cc1NC(=O)NCC1CCOC1)OCCO2 (stereo not given) | -1.8
Cc1nc2ccc(-n3ncnc3[C@@H]3CCCN3S(C)(=O)=O)cc2s1 | 12.3
CC(C(=O)NCC1CCCCC1)S(=O)(=O)Cc1csc(-c2cccs2)n1 (stereo not given) | -9.36
Cc1cc(C(=O)N(C)Cc2nc(-c3ccccn3)no2)c(C)o1 | -4.74
COC(C)c1noc(CN(C)c2ncc(Br)cn2)n1 (stereo not given) | -3.46
O=C(N[C@H]1CN[C@H]2CCCO[C@H]21)c1cscn1 | -4.74
Cn1cc(C2COC3(CCN(C(=O)Cc4ccccc4)CC3)C2)cn1 (stereo not given) | -8.09
COc1cccc(OCC2CCCN(c3cc(C(N)=O)ccn3)C2)c1 (stereo not given) | -11.8
CN(C)Cc1nn(C)c2c1CCN(S(=O)(=O)c1cccs1)C2 | 1.38
O=C(CCN1CCCCO1)NCc1cn2c(n1)SCC2 | -0.977
O=C(c1ncccn1)N1CCC[C@]2(C[C@@H](OCC3CC3)CO2)C1 | -16.4
Cc1cccnc1NC(=O)NCc1cccnc1OC(C)C | -6.17
COc1ccc(CN2CCCC(Cn3nc(C)nc3C)C2)cc1F (stereo not given) | -8.47
COc1cc2c(cc1OC)CN(C(C(=O)O)c1c(C)nn(C)c1C)CC2 (stereo not given) | -6.71
COCCC1COC2(CCN(C(=O)C3CCCC3)CC2)C1 (stereo not given) | -6.45
O=c1[nH]nc(SCC2CCCCO2)n1C1CC1 (stereo not given) | 28.8
CC(C)c1ocnc1C(=O)Nc1cccc(Cn2ccccc2=O)c1 | 19
CS(=O)(=O)N1CCCCCC1C1CCN(c2ncccn2)CC1 (stereo not given) | 15.3
Cc1nc(CN2CCCC(NCc3cccc(C(N)=O)c3)C2)no1 (stereo not given) | -3.45
CC(=O)N1CCCC1c1cccc(Cc2ccccc2F)n1 (stereo not given) | 35.5

SMILES | cytotoxicity at 70.5 h [%]
Cn1cc(CN2CCc3onc(C(=O)Nc4cccnc4)c3C2)cn1 | -3.27
O=C(NCc1ccc(F)cc1)NCC(O)(c1cccs1)C1CC1 (stereo not given) | -8.72
O=C(c1ccncc1F)N1C[C@H]2CC[C@@H]1CN(Cc1cccnc1)C2 | -4.95
Cc1noc(Cl)c1CC(=O)NCCOc1ccc(F)cc1F | -0.975
Cc1n[nH]c(C)c1C1COCCN1C(=O)c1ccc2c(c1)CCO2 (stereo not given) | -8
Cn1ccc(C(=O)N2CCCN(CCCc3ccccc3)CC2)cc1=O | -17.2
CC(=O)N1CCCC1c1ccc(Br)cn1 (stereo not given) | 1.79
Cc1cc(C(=O)N2CCNC(=O)C2)c(C)n1Cc1ccccn1 | -5.56
Cc1noc([C@H]2C[C@H]3OCC[C@H]3N(S(C)(=O)=O)C2)n1 | 3.17
Cc1cc(CN2CCOC(Cn3nc(C)cc3C)C2)on1 (stereo not given) | -5.48
CN1CCN(S(C)(=O)=O)c2cc(F)ccc21 | -14.8
CCn1cc(CN2CCCC2c2nc(C(C)C)no2)cc1C#N (stereo not given) | 21
Cc1c(C(=O)NCC2CCCO2)nnn1-c1cccc2c1CCN(C)C2 (stereo not given) | 19.8
CCn1cc(S(=O)(=O)N2CCCCCC2c2cc(C)on2)cn1 (stereo not given) | 2.09
COc1ccccc1C(=O)N1CC(=O)N(CC(C)C)CC(O)C1 (stereo not given) | -1.35
O=C(O)CCCc1ccc2c(c1)CC(=O)N2 | -9.78
CN(C)c1ccccc1CN1CCCCC1CNS(C)(=O)=O (stereo not given) | -4.51
CS(=O)(=O)NCC1CCCN(C(=O)c2ccc3c(c2)CCC3)C1 (stereo not given) | 3.24
O=C(N1CCOCC1)[C@@]12CCO[C@@H]1CCN(CC1CCCCC1)C2 | 27.8
CCC(C)NC(=O)N1CCCn2cnc(CO)c2C1 (stereo not given) | -7.63
CC(c1nc(C2CC2)no1)N1CCN(Cc2cccc(F)c2F)CC1 (stereo not given) | -10.5
Cn1ncc(N2CCOC(CCNC(=O)N3CCCCC3)C2)cc1=O (stereo not given) | -6.9
COc1cnc(CN2CC(=O)N(c3ccc(C)cc3)CC2C)cc1O (stereo not given) | -5.7
